Test results taken from patent publication US12685735B2 (Foghorn Therapeutics Inc., priority 2020, dated 2026).
Like-named read-outs stand apart in the source and are kept apart here.

Assays:
BRM = BRM (Homo sapiens, UniProt P51531); experiment: ATPase catalytic activity assay of BRM (ADP-Glo); format: biochemical; conditions: for IC50: read-out: BRM IC50 (μM)*
In short: (§1)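 In vitro biochemical ATPase assay; product ADP detected after removing leftover ATP and reconverting ADP to ATP for a luciferase signal.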

BRG-1 = BRG-1 (Homo sapiens, UniProt P51532); experiment: ATPase catalytic activity assay of BRG-1 (ADP-Glo); format: biochemical; conditions: ATPase catalytic activity, ADP-Glo; for IC50: read-out: BRG1 IC50 (μM)*; for Emax: read-out: BRG1 Max % Inhibition
Chain of BRG-1 (P51532 whole entry): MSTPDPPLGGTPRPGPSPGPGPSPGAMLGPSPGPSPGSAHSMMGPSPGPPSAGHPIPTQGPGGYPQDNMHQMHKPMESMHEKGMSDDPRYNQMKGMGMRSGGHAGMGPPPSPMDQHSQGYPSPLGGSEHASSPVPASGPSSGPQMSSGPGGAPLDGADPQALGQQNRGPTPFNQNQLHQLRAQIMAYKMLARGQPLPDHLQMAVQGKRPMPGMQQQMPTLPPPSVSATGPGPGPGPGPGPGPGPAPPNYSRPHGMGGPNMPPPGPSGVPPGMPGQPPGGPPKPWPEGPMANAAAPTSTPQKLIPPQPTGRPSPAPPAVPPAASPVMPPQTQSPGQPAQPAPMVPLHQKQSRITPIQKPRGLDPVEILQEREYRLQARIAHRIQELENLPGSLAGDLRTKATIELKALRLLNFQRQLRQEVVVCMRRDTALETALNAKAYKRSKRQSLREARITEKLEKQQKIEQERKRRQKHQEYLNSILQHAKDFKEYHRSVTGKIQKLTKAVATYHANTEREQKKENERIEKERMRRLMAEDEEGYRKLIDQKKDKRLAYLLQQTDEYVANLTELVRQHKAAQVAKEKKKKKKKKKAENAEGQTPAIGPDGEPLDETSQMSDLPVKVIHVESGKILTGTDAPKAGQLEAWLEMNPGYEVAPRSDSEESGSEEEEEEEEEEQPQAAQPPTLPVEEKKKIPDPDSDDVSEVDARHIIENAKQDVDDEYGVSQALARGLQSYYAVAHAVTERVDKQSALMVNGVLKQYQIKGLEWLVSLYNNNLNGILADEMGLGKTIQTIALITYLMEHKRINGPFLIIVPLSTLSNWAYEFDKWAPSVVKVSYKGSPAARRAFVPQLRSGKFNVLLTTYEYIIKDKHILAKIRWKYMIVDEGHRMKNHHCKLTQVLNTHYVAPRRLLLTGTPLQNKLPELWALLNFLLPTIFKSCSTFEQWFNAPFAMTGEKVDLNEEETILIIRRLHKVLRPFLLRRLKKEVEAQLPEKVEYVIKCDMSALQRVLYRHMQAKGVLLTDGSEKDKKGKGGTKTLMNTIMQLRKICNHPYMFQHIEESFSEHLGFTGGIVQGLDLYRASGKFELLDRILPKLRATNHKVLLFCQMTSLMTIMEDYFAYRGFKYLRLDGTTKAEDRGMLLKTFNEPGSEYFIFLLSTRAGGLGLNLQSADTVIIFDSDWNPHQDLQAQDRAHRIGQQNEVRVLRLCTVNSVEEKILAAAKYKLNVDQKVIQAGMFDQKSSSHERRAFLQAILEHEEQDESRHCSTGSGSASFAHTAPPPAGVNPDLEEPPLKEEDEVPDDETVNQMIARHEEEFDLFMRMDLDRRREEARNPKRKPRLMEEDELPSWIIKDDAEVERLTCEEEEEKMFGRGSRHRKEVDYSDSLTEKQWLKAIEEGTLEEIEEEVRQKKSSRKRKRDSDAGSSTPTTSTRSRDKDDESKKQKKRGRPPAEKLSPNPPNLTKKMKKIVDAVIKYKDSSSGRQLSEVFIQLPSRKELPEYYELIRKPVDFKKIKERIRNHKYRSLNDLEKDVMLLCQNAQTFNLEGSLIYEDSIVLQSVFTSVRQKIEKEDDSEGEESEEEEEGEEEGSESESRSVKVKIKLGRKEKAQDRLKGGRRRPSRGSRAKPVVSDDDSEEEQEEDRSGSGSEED
In short: as §1

Chain of BRM (P51531 whole entry): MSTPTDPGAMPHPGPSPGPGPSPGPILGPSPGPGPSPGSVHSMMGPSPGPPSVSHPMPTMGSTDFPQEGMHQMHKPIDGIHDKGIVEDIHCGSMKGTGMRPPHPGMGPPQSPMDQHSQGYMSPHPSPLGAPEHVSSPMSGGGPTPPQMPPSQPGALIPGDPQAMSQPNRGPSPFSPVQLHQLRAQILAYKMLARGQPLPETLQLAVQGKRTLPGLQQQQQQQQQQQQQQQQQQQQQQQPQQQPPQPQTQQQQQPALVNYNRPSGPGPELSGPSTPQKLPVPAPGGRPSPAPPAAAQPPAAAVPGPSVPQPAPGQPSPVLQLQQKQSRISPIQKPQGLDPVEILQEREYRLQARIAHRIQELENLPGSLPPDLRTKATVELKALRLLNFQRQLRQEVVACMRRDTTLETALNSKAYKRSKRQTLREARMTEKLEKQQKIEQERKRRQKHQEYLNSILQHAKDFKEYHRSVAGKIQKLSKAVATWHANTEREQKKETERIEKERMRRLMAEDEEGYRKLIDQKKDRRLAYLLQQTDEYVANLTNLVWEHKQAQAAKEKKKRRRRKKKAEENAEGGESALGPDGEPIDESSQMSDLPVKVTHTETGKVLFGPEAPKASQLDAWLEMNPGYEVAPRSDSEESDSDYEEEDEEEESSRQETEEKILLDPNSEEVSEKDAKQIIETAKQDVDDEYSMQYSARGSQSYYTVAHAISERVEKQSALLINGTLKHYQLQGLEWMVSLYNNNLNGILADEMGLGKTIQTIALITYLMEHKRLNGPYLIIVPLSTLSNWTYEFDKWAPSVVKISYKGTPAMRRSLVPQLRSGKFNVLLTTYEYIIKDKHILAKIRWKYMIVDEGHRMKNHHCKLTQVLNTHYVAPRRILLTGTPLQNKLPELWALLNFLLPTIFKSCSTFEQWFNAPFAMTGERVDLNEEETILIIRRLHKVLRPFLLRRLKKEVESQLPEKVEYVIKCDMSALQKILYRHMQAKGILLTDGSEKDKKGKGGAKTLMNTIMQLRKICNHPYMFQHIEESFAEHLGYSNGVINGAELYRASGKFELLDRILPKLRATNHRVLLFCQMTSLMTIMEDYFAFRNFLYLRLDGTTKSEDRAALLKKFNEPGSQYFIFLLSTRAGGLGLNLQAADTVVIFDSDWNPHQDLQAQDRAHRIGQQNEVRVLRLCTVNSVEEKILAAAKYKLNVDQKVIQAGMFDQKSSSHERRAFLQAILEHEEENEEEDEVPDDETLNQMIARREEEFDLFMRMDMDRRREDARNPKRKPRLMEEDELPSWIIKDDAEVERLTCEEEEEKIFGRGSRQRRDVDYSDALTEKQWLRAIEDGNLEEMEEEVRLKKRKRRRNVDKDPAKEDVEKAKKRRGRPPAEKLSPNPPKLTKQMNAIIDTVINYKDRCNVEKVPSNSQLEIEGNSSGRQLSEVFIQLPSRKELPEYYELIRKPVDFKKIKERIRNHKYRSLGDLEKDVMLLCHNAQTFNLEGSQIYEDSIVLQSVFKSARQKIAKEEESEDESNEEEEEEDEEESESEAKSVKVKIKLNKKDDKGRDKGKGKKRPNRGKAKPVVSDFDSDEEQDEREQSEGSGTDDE

`C[C@@]1(C#N)COCc2ccc(C(=O)NCC(=O)Nc3nc(-c4cccc([C@]56CCOC[C@H]5C6)n4)cs3)cc21` [Compound 293, (R)-N-(2-((4-(6-((1S,6R)-3-oxabicyclo[4.1.0]heptan-6-yl)pyridin-2-yl)thiazol-2-yl)amino)-2-oxoethyl)-4-cyano-4-methylisochromane-6-carboxamide] was tested, and the “BRM Max % Inhibition” value (BRM) was greater than 95%, the IC50 (BRM) was less than 0.1 µM and the IC50 (BRG-1) was 0.1 to 1 µM. The Emax (BRG-1) was greater than 95%.

`C[C@@H]1CN(c2cccc(-c3csc(NC(=O)CNC(=O)c4ccc5c(c4)CCCO5)n3)n2)C[C@H](C)O1` [Compound 370, N-(2-((4-(6-((cis)-2,6-dimethylmorpholino)pyridin-2-yl)thiazol-2-yl)amino)-2-oxoethyl)chromane-6-carboxamide] was tested, and the “BRM Max % Inhibition” value (BRM) was greater than 65%, the IC50 (BRM) was 0.1 to 1 µM and the IC50 (BRG-1) was greater than 5 µM. It also gave an Emax (BRG-1) greater than 65%.

`C[C@@]1(C#N)COCc2ccc(C(=O)NCC(=O)Nc3nc(-c4cc(F)cc(N5CCC5)c4)cs3)cc21` [Compound 364, (R)-N-(2-((4-(3-(azetidin-1-yl)-5-fluorophenyl)thiazol-2-yl)amino)-2-oxoethyl)-4-cyano-4-methylisochromane-6-carboxamide] was tested, and the “BRM Max % Inhibition” value (BRM) was greater than 95%, the IC50 (BRM) was less than 0.1 µM and the IC50 (BRG-1) was less than 0.1 µM. For the same compound, the Emax (BRG-1) was greater than 95%.

For `Cc1cc(-c2cccc(-c3csc(NC(=O)CNC(=O)c4cc(C)c(C)c(C(C)(C)CN)c4)n3)c2)cc(C)n1` [Compound 245, 3-(2-amino-1,1-dimethyl-ethyl)-N-[2-[[4-[3-(2,6-dimethyl-4-pyridyl)phenyl]thiazol-2-yl]amino]-2-oxo-ethyl]-4,5-dimethyl-benzamide], the “BRM Max % Inhibition” value (BRM) was greater than 95%, the IC50 (BRM) was less than 0.1 µM and the IC50 (BRG-1) was 1 to 5 µM. For the same compound, the Emax (BRG-1) was greater than 70%.

`Cc1cc(-c2cccc(-c3csc(NC(=O)CNC(=O)c4ccc5c(c4)[C@@](C)(CO)CCC5)n3)c2)cc(C)n1` [Compound 231, (S)-N-(2-((4-(3-(2,6-dimethylpyridin-4-yl)phenyl)thiazol-2-yl)amino)-2-oxoethyl)-8-(hydroxymethyl)-8-methyl-5,6,7,8-tetrahydronaphthalene-2-carboxamide] was tested, and the “BRM Max % Inhibition” value (BRM) was greater than 95%, the IC50 (BRM) was less than 0.1 µM and the IC50 (BRG-1) was 0.1 to 1 µM. It also gave an Emax (BRG-1) greater than 80%.

With `CN1C[C@](C)(C#N)c2cc(C(=O)NCC(=O)Nc3nc(-c4cc(F)cc(N5CCC5)c4)cs3)ccc21` [Compound 288, (R)-N-(2-((4-(3-(azetidin-1-yl)-5-fluorophenyl)thiazol-2-yl)amino)-2-oxoethyl)-3-cyano-1,3-dimethylindoline-5-carboxamide] the “BRM Max % Inhibition” value (BRM) was greater than 75%, the IC50 (BRM) was 0.1 to 1 µM and the IC50 (BRG-1) was greater than 5 µM. It also gave an Emax (BRG-1) greater than 75%.

In the case of `CCOC(=O)N1CCC[C@H](c2csc(NC(=O)CNC(=O)c3ccc4c(c3)C(C)(F)COC4)n2)C1` (stereo in doubt) [Compound 284, ethyl (S)-3-(2-(2-((R)-4-fluoro-4-methylisochromane-6-carboxamido)acetamido)thiazol-4-yl)piperidine-1-carboxylate], the “BRM Max % Inhibition” value (BRM) is reported as greater than 95%, the IC50 (BRM) is reported as less than 0.1 µM and the IC50 (BRG-1) is reported as 0.1 to 1 µM. For the same compound, the Emax (BRG-1) was greater than 95%.

In the case of `C[C@@H](N)C(C)(C)c1cccc(C(=O)NCC(=O)Nc2nc(-c3cccc(-c4ccncc4)c3)cs2)c1` [Compound 109], the “BRM Max % Inhibition” value (BRM) is reported as greater than 80%, the IC50 (BRM) is reported as 1 to 5 µM and the IC50 (BRG-1) is reported as 1 to 5 µM. The Emax (BRG-1) was greater than 50%.

In the case of `C[C@@H]1CN(c2cccc(-c3csc(NC(=O)CNC(=O)c4cccc([C@]5(C)COC[C@H]5O)c4)n3)n2)C[C@H](C)O1` [Compound 408], the “BRM Max % Inhibition” value (BRM) is reported as greater than 90%, the IC50 (BRM) is reported as 0.1 to 1 µM and the IC50 (BRG-1) is reported as 1 to 5 µM. It also gave an Emax (BRG-1) greater than 90%.

`CC(C)S(=O)(=O)c1cccc(C(=O)NCC(=O)Nc2nc(-c3cccc(N4C[C@@H](C)O[C@@H](C)C4)c3)cs2)c1` [Compound 14, N-(2-((4-(3-((2S,6R)-2,6-dimethylmorpholino)phenyl)thiazol-2-yl)amino)-2-oxoethyl)-3-(isopropylsulfonyl)benzamide] was tested, and the “BRM Max % Inhibition” value (BRM) was greater than 95%, the IC50 (BRM) was less than 0.1 µM and the IC50 (BRG-1) was 0.1 to 1 µM. For the same compound, the Emax (BRG-1) was greater than 80%.

With `O=C(CNC(=O)c1cccc(C2(C(F)F)COC2)c1)Nc1nc(-c2cccc(N3CCC3)c2)cs1` [Compound 362, N-(2-((4-(3-(azetidin-1-yl)phenyl)thiazol-2-yl)amino)-2-oxoethyl)-3-(3-(difluoromethyl)oxetan-3-yl)benzamide] the “BRM Max % Inhibition” value (BRM) was greater than 90%, the IC50 (BRM) was less than 0.1 µM and the IC50 (BRG-1) was 0.1 to 1 µM. It also gave an Emax (BRG-1) greater than 90%.

With `Cc1nccc(-c2cccc(-c3csc(NC(=O)CNC(=O)c4ccc5c(c4)[C@@](C)(CO)CCC5)n3)n2)n1` [Compound 211, (4S)-4-(hydroxymethyl)-4-methyl-N-[2-[[4-[6-(2-methylpyrimidin-4-yl)-2-pyridyl]thiazol-2-yl]amino]-2-oxo-ethyl]tetralin-6-carboxamide] the “BRM Max % Inhibition” value (BRM) was greater than 80%, the IC50 (BRM) was 0.1 to 1 µM and the IC50 (BRG-1) was greater than 5 µM. For the same compound, the Emax (BRG-1) was greater than 40%.

For `CC1(C#N)CCOc2ccc(C(=O)NCC(=O)Nc3nc(-c4cccc([C@H]5CC5(F)F)n4)cs3)cc21` (stereo in doubt) [Compound 378, (S)-4-cyano-N-(2-((4-(6-((R)-2,2-difluorocyclopropyl)pyridin-2-yl)thiazol-2-yl)amino)-2-oxoethyl)-4-methylchromane-6-carboxamide], the “BRM Max % Inhibition” value (BRM) was greater than 95%, the IC50 (BRM) was 0.1 to 1 µM and the IC50 (BRG-1) was 1 to 5 µM. For the same compound, the Emax (BRG-1) was greater than 95%.

`CCOC(=O)N1CCCC(c2csc(NC(=O)CNC(=O)c3ccc4c(c3)[C@](C)(F)COC4)n2)C1` (stereo in doubt) [Compound 283, ethyl (S)-3-(2-(2-((S)-4-fluoro-4-methylisochromane-6-carboxamido)acetamido)thiazol-4-yl)piperidine-1-carboxylate] was tested, and the “BRM Max % Inhibition” value (BRM) was greater than 95%, the IC50 (BRM) was less than 0.1 µM and the IC50 (BRG-1) was 0.1 to 1 µM. It also gave an Emax (BRG-1) greater than 95%.

`C[C@]1(CO)CCc2ccc(C(=O)NCC(=O)Nc3nc(-c4cccc(-c5cccnc5O)n4)cs3)cc21` [Compound 191, (S)-N-(2-((4-(2′-hydroxy-[2,3′-bipyridin]-6-yl)thiazol-2-yl)amino)-2-oxoethyl)-3-(hydroxymethyl)-3-methyl-2,3-dihydro-1H-indene-5-carboxamide] was tested, and the “BRM Max % Inhibition” value (BRM) was greater than 90%, the IC50 (BRM) was 0.1 to 1 µM and the IC50 (BRG-1) was 0.1 to 1 µM. It also gave an Emax (BRG-1) greater than 80%.

In the case of `C[C@H](CO)S(=O)(=O)c1cccc(C(=O)NCC(=O)Nc2nc(-c3cccc(-c4ccncc4)c3)cs2)c1` [Compound 116, (R)-3-((1-hydroxypropan-2-yl)sulfonyl)-N-(2-oxo-2-((4-(3-(pyridin-4-yl)phenyl)thiazol-2-yl)amino)ethyl)benzamide], the “BRM Max % Inhibition” value (BRM) is reported as greater than 80%, the IC50 (BRM) is reported as 0.1 to 1 µM and the IC50 (BRG-1) is reported as 1 to 5 µM. The Emax (BRG-1) was greater than 40%.

With `C[C@@H]1CN(c2cccc(-c3csc(NC(=O)CNC(=O)c4ccc5c(c4)C(C)(C#N)COC5)n3)n2)C[C@H](C)O1` (stereo in doubt) [Compound 420, (R)-4-cyano-N-(2-((4-(6-((cis)-2,6-dimethylmorpholino)pyridin-2-yl)thiazol-2-yl)amino)-2-oxoethyl)-4-methylisochromane-6-carboxamide] the “BRM Max % Inhibition” value (BRM; 30 nM BRM, 400 μM ATP) was greater than 95%, the IC50 (BRM; 30 nM BRM, 400 μM ATP) was less than 0.1 µM and the IC50 (BRG-1; 30 nM BRG-1, 400 μM ATP) was less than 0.1 µM. For the same compound, the Emax (BRG-1; 30 nM BRG-1, 400 μM ATP) was greater than 95%.
